This is an account of results in patent US5661182A, “Method for lowering oxygen affinity of hemoglobin in redcell suspensions, in whole blood and in vivo” (Virginia Commonwealth University, priority 1995, dated 1997).

“Also recorded” adds a separate entry of the source.

Test [1] has as its target hemoglobin in fresh bovine red blood cells (Bos taurus, UniProt P01966+P02070). The experiment in a line: Oxygen binding of fresh bovine red blood cells (p50). The format is cell-based. The settings on record: for RBC (p50): bovine RBC, effector 0.5 mM, pH 7.4, 37 °C. The procedure:
(§1) Human blood was collected on heparin from healthy nonsmoking donors. Bovine blood was provided by Pr Delpech, INA (Paris-Grignon). Red blood cells were washed three times in isotonic buffer, kept at 4° C., and used within 24 h after sampling. Hemoglobin Yakima, a high-oxygen-affinity variant [α2 β2 99 (G1) Asp>>His], was obtained from a known heterozygous carrier. Fresh Yakima red cells were processed in the same way as described above.
(§2) L3,5 and L3,4,5 were provided by Dr. Lalezari (Montefiore Hospital, New York); RSR-4 [2-[4-[[(3,5-dichloroanilino)carbonyl]methyl]phenoxy]-2-methylpropionic acid]and RSR13 [2-4-[[(3,5- dimethylanilino)carbonyl]methyl]phenoxy]-2-methylpropionic acid] have been synthesized following the procedure described in Randad et al. (J. Med. Chem. 34,752 (1991)). Human serum albumin (HSA), bovine serum albumin (BSA) and 4,4'diisothiocyanatostilbene-2,2'-disulfonate (DIDS) were purchased from Sigma (St. Louis, Mo.). Due to their low solubility in aqueous buffer, 10 mM stock solutions of the compounds were prepared in a slight exccess of sodium bicarbonate and back-titrated to pH 7.4. For example, RSR-4 or RSR-13 was dissolved at 60° C. in a 140 mM NaCl and 50 mM bis-Tris buffer at room temperature upon progressive addition of NaHCO3 to obtain 10 mM stock solutions. The pH was carefully adjusted to 7.4 after complete solubilization and before use of the solutions. Fresh solutions were prepared each week. Stock solutions of DIDS (1 mM) were prepared, in the dark, on the day of the experiments in a pH 7.4 buffer. Human serum albumin (defatted HSA) and bovine serum albumin (BSA) were prepared freshly as 1 mM stock solutions, pH 7.4. Equilibrium Measurements. The allosteric modulation of the effectors on freshly prepared solutions of hemoglobin or red cell suspensions was measured by the change in p50, the partial pressure of oxygen for half-saturation. Oxygen equilibrium curves (OEC) were carried out with the Hemox analyzer (TCS, Southampton, Pa.) under the following conditions: pH 7.4, 140 mM NaCl and 50 mM bis-Tris buffer at 37° C. In all experiments, the concentration of hemoglobin in the red cell suspensions was 20-25 μM hemoglobin tetramer (Hb4) as measured by Drabkin's method (cyanomethemoglobin) at the end of each recording. The final concentration of the allosteric effector in the cuvette was 0.5 mM, resulting in an effector/Hb4 ratio of 20 in the absence of albumin. OEC were also made in the same buffer containing 12.5, 25, 50, and 100 μM HSA (for human red cell suspensions) or BSA (for bovine cell suspensions). The serum albumin experiments were carried out with traces of an antifoaming agent. This agent has no deleterious effect on the red cell suspensions. The molar ratio of albumin to tetrameric hemoglobin was varied from 0.5 (at 12.5 μM HSA) to 4 (at 100 μM HSA); in whole blood this ratio is approximately 0.3 (0.7 mM albumin plus plasma proteins/2.25 mM Hb4). Therefore, the concentration of albumin used in the present studies was always larger relative to tetrameric hemoglobin than that found in whole blood.
Bovine Red Cell Studies. Table 2 presents data for oxygen binding measurements for fresh bovine red blood cells and isolated Hb solutions on addition of the effectors L3,5, RSR-4, and RSR-13. The experimental conditions used were the same as described in conjunction with Table 1 for human red blood cells. The oxygen equilibrium curves for Hb solutions were made at pH 7.2, 100 mM NaCl and 50 mM bis-Tris buffer at 25° C. Catalase (20 μg/mL) and 50 μM EDTA were added to oppose oxidation of the hemes. The concentration of the effectors was 0.5 mM in all conditions. In Table 2, BSA is bovine serum albumin and P50 (mmHg) is the pO2 for 50% saturation.

A further test relates to hemoglobin. The experiment in a line: Comparison of allosteric effector strength (right shift of oxygen equilibrium curve). The settings on record: compounds of FIG. 1. Type of test: biochemical.
In test [2] the target is hemoglobin in fresh human red blood cells (Homo sapiens, UniProt P68871+P69905). The experiment in a line: Oxygen equilibrium curves of fresh human red cell suspensions (p50). To be noted: for potency in raising p50 / lowering the oxygen affinity: fresh human red cells, absence of albumin; for P50: effector 0.5 mM, pH 7.4, 37 °C; for inhibition of the allosteric effect by albumin: human red cells, 50 or 100 μM HSA. The format is cell-based. As for the experimental part:
as §1, §2
Equilibrium oxygen binding curves were also recorded for red cell suspensions (10% hematocrit) that had been reacted for 30 min in the dark at 37° C. with 20 μM DIDS, a specific inhibitor of the red cell membrane anion channel. Kinetic Experiments. The kinetics of the interaction between the effectors and intracellular hemoglobin were measured in the absence and presence of varying concentrations of HSA. The red cell suspensions were equilibrated under room air (pO2 =140 mmHg) at 37° C. in the optical cuvette of the Hemox analyzer, which provides a constant stirring of the suspensions. […] Changes in absorbance were recorded and stored on tape for further analyses. […]

In test [3] the target is intracellular hemoglobin, human red cells (Homo sapiens, UniProt P68871+P69905). In words: Kinetics of interaction between effectors and intracellular hemoglobin (absorbance at 560 nm) in human red cell suspensions. Type of test: cell-based. To be noted: for ΔA560: effector 0.5 mM, room air. The procedure: Equilibrium oxygen binding curves were also recorded for red cell suspensions (10% hematocrit) that had been reacted for 30 min in the dark at 37° C. with 20 μM DIDS, a specific inhibitor of the red cell membrane anion channel. Kinetic Experiments. The kinetics of the interaction between the effectors and intracellular hemoglobin were measured in the absence and presence of varying concentrations of HSA. The red cell suspensions were equilibrated under room air (pO2 =140 mmHg) at 37° C. in the optical cuvette of the Hemox analyzer, which provides a constant stirring of the suspensions. […] Changes in absorbance were recorded and stored on tape for further analyses.
An increase in absorbance at 560 nm (εmax for deoxy-Hb in the visible spectrum) under room air indicates the formation of partially deoxygenated Hb in the red cells and a decreased oxygen affinity of Hb, provided that the pH is held constant.
Examples of these kinetic recordings are illustrated in FIG. 4. Two indices were calculated from the experimental values: ΔA560 is the difference in optical density from the base line to the plateau and t1/2 is […]. […]

The mark [4] stands for this setting: human RBC suspension, 50 μM HSA.
Setting [5] is: human RBC suspension, 100 μM HSA.
The mark [6] stands for this setting: time for half-ΔA560, effector 0.5 mM, 50 μM HSA, 37 °C.
[7] abbreviates: time for half-ΔA560, effector 0.5 mM, 100 μM HSA, 37 °C.
The mark [8] stands for this setting: time for half-ΔA560, effector 0.5 mM, no HSA, 37 °C.
The mark [9] stands for this setting: human RBC pre-incubated 30 min with DIDS, no HSA.
The mark [10] stands for this setting: time for half-ΔA560, effector 0.5 mM, 12.5 μM HSA, 37 °C.

hemoglobin in fresh human red blood cells, sequence (P69905 whole entry): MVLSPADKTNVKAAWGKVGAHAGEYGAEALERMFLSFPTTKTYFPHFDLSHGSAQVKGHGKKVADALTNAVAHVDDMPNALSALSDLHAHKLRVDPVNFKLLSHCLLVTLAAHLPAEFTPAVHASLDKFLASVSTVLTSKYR
hemoglobin in fresh human red blood cells, sequence (P68871 whole entry): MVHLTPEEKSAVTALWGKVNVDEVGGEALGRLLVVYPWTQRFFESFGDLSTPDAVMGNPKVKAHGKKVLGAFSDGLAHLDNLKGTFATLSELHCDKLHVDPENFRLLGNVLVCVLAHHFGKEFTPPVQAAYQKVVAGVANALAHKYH
intracellular hemoglobin, human red cells, sequence (P69905 whole entry): as the sequence (P69905 whole entry) above
intracellular hemoglobin, human red cells, sequence (P68871 whole entry): as the sequence (P68871 whole entry) above
hemoglobin in fresh bovine red blood cells, sequence (P01966 whole entry): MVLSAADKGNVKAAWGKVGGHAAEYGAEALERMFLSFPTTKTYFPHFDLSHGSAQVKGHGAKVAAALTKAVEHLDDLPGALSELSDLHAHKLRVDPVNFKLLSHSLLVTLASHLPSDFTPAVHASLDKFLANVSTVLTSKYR
hemoglobin in fresh bovine red blood cells, sequence (P02070 whole entry): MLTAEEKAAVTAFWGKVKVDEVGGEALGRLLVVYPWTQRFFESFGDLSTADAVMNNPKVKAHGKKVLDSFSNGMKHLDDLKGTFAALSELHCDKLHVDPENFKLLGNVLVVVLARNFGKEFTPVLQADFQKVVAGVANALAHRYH

Consider `Cc1cc(C)cc(NC(=O)Cc2ccc(OC(C)(C)C(=O)O)cc2)c1` [RSR-13], for which, in test [1] (no BSA), the “RBC (p50)” value was 31 mmHg. The “order of potency in lowering the oxygen affinity” value in test [1] (bovine red cells) is given as “RSR-4>>L3,5>RSR-13”. Moreover, the p50 shift relative to control at 500 µM in test [1] (bovine red cells, 0.5 mM) amounted to 15%. Further, in the test on hemoglobin, the “allosteric effector strength” value is listed as “L3,5≈RSR-4>RSR-13”. The “potency in raising p50 / lowering the oxygen affinity” value in test [2] is recorded as “weakest in reducing the oxygen affinity of Hb, relative to L3,5 or RSR-4; also recorded: L3,5≈RSR-4>RSR-13”. Also, the P50 in test [2] (setting [4]) is given as 34.0 mm Hg; in test [2] (setting [5]) it was 32.6 mm Hg; in test [2] (human RBC suspension, no HSA), 37.8 mm Hg. In addition, in test [2], the “inhibition of the allosteric effect by albumin” value was “much less affected by serum albumin, and its effect persists even in the presence of 100 1-M HSA”. The “change in t1/2 upon addition of albumin” value in test [3] (HSA added) was “No change”. For the same compound, the ΔA560 in test [3] (50 μM HSA, 37 °C) turned out to be 0.082; in test [3] (100 μM HSA, 37 °C), 0.067; in test [3] (no HSA, 37 °C), 0.085. The t1/2 entry is reported as “over 2 min” in test [3] (in the absence of albumin), 138 s in test [3] (setting [6]), 125 s in test [3] (setting [7]) and 139 s in test [3] (setting [8]).
As for `CC(C)(Oc1ccc(CC(=O)Nc2cc(Cl)cc(Cl)c2)cc1)C(=O)O` [RSR-4, 2-[4-[[(3,5-dichloroanilino)carbonyl]methyl]phenoxy]-2-methylpropionic acid], the “RBC (p50)” value was determined as 45 mmHg in test [1] (50 μM BSA) and 54 mmHg in test [1] (no BSA). Also, in test [1] (bovine red cells), the “order of potency in lowering the oxygen affinity” value is “RSR-4>>L3,5>RSR-13”. Besides, the “effect on control p50” value in test [1] (bovine red cells, 0.5 mM, without and with 50 μM BSA) was “doubling of the control p50 and persists even in the presence of 50 μM BSA”. In addition, in the test on hemoglobin, the “allosteric effector strength” value is “L3,5≈RSR-4>RSR-13”. Also, the “potency in raising p50 / lowering the oxygen affinity” value in test [2] is recorded as “comparable; also recorded: almost equally potent effectors; also recorded: L3,5≈RSR-4>RSR-13”. In addition, the P50 came out at 49 mm Hg in test [2] (setting [9]); 48.5 mm Hg in test [2] (human RBC suspension, 12.5 μM HSA); 44.0 mm Hg in test [2] (setting [4]); 36 mm Hg in test [2] (setting [5]); 52.5 mm Hg in test [2] (human RBC suspension, no HSA). Besides, the “inhibition of the allosteric effect by albumin” value in test [2] was “less inhibited by albumin than the closely related compound L3,5; also recorded: much lower inhibition of RSR-4 by serum albumin than that observed with L3,5; also recorded: much less inhibited by 50 or 100 μM albumin than observed with L3,5”. Further, the ΔA560 worked out at 0.107 in test [3] (12.5 μM HSA, 37 °C); 0.086 in test [3] (50 μM HSA, 37 °C); 0.042 in test [3] (100 μM HSA, 37 °C); 0.152 in test [3] (no HSA, 37 °C). Besides, the t1/2 was found to be 60 s in test [3] (in the absence of albumin); 92 s in test [3] (setting [10]); 76 s in test [3] (setting [6]); 87 s in test [3] (setting [7]); 60 s in test [3] (setting [8]).
With `CC(C)(Oc1ccc(NC(=O)Nc2cc(Cl)cc(Cl)c2)cc1)C(=O)O` [L3,5, reference compound], the “RBC (p50)” value in test [1] (no BSA) is listed as 35 mmHg. Further, in test [1] (bovine red cells), the “order of potency in lowering the oxygen affinity” value is listed as “RSR-4>>L3,5>RSR-13”. Further, the p50 shift relative to control at 500 µM in test [1] (bovine red cells, 0.5 mM) came out at 30%. The “allosteric effector strength” value with hemoglobin is given as “L3,5≈RSR-4>RSR-13; also recorded: much stronger allosteric effect”. Further, in test [2], the “potency in raising p50 / lowering the oxygen affinity” value was “comparable; also recorded: almost equally potent effectors; also recorded: L3,5≈RSR-4>RSR-13”. The P50 is recorded as 54 mm Hg in test [2] (setting [9]); 32 mm Hg in test [2] (setting [4]); 28 mm Hg in test [2] (setting [5]); 60 mm Hg in test [2] (human RBC suspension, no HSA). In addition, the ΔA560 turned out to be 0.124 in test [3] (12.5 μM HSA, 37 °C); 0.058 in test [3] (50 μM HSA, 37 °C); 0.029 in test [3] (100 μM HSA, 37 °C); 0.181 in test [3] (no HSA, 37 °C). For the same compound, the t1/2 turned out to be 92.5 s in test [3] (setting [10]), 110 s in test [3] (setting [6]), 115 s in test [3] (setting [7]) and 33 s in test [3] (setting [8]).
